Five molecules from US20100048457A1, “GLYCOPROTEIN FOR TREATING CHRONIC OBSTRUCTIVE PULMONARY DISEASES” (Guangzhou Konzern Pharmacetuical Co. Ltd, priority 2007, published 2010) can be followed below.

The subject of experiment [1] is ciliary movement in trachea mucous of rabbits. The experiment can be described thus: Ciliary movement in trachea mucous. More on the design: species or system rabbit; key to Ciliary movement: +++: All ciliary active in field of vision:; ++: ⅓~⅔ ciliary active in field of vision:; +: Less than ⅓ ciliary active in field of vision:; −−: All ciliary inactive in field of vision:
The conditions noted are these: Ach, Dosage (g/L) 0.1. As for the experimental part:
The trachea mucous is exposed and washed by Ringer's solution (37° C.), then observe the sample by anatomical lens.
Add an ink into trachea mucous, the ink will move to one way (towards larynx), measure the velocity by micrometer and stopwatch, then calculate the moving velocity of mucus moving (second/2 mm).

The test system of experiment [2] is model animal with emphysema and pulmonary hypertension. The experiment can be described thus: Experimental emphysema and pulmonary hypertension model. The experiment is classed as in vivo, golden hamster. As for the experimental part:
Preparation of model animal with emphysema and pulmonary hypertension: choose 75 from 90 male golden hamster randomly, 100-150 g each, to make model mouse. The model-building is performed on elected 75 animals under intraperitoneal anesthesia. Then open the mouse and exposure its throat, insert a pipe and inject the medicine fluid (60 U/100 g weight) into the body through the pipe, then shake the animal to let the medicine equality. Animals are wake in several hours, and feed normally. Other 15 golden hamster are acted as normal control group (Group A), the same volume of saline is injected in each trachea of each animal.
After perfusion of the medicine by gavage, animals are killed to measure the following:
Right Systolic Pressure (RSP): animals are cut in the neck to expose the right jugular vein, then insert the pipe into the right jugular vein to right ventricle, the pipe also connects the physiological monitor (RM-6300, Japan) for blood pressure measuring. The right carotic artery is also exposed and cannulated for blood pressure measuring.
Right Ventricle Hypertrophy Index (RVHI): kill the animal by bleeding, open the chest and bring the heart out, then cut the right ventricle down. Wash the heart by saline, absorb the water by filter paper, and then weight the right ventricle, and weight the total weight of the left ventricle and atrioventricular septalium. RVHI=weight of right ventricle/(total weight of left ventricle and atrioventricular septalium)
Pneumonic bronchoalveolar lavage fluid analyse: isobarical lavage machine is infused with Locke's solution, 37° C., the level of bottom is 60-100 cm higher than the T pipe. Kill the animal and open its chest, separate and cut down the trachea, and then bring out the trachea and the lung together, place in the Locke's solution, 37° C. Extrude the air out of the lung, and ligate the trachea with sleeve and connect with the T pipe. Open the T pipe to let Locke's solution flow into the lung, adjust the velocity of flow to about 25 ml/min. Concentrate the lavage 400 g by the centrifugal for 10 minutes, remove the supernatant, then add physiological saline into the deposit to make the cell suspend. Count the number of cells of bronchoalveolar lavage fluid ([…]) by inverted microscope, four times for one sample. Count the number of cells (/ml/g) of bronchoalveolar lavage fluid (BALF). Dye the smear of the suspend with HE, then count the ratio of macrophage in cell types.
Statistic treatment: data is expressed by x±s, and analyzed by one-way ANOVA, and compare with each group by Newman-Keuls method, P<0.05 meants distinct difference.

Experiment [3] concerns isolated bronchitis in contractive state. The experiment can be described thus: Lung overfall of isolated bronchitis in contractive state, before and after dosing. More on the design: species or system guinea pig. The conditions noted are these: aminophylline group. As for the experimental part: (§1) The isobarical lavage machine is infused with Locke's solution, 37° C., the level of bottom is 60-100 cm higher than the T pipe. Guinea pigs are narcosis under intraperitoneal anesthesia by 1.5 ml 1% pentobarbital. Take 2 ml blood from cervical artery for detection of inflammatory factors. Kill the animal and open its chest, separate and cut down the trachea, and then bring out the trachea and the lung together, place in the Locke's solution, 37° C. Extrude the air out of the lung, and ligate the trachea with sleeve and connect with the T pipe. Open the T pipe to let Locke's solution flow into the lung, adjust the velocity of flow to about 25 ml/min. Take 5 ml lavage fluid for detection of inflammatory factors. When the velocity of flow is stable, animals are given 0.5% ovalbumin to stimulate the twitching of bronchia. After 30 minutes, observe and record the flux per minute, 6-10 minutes.
After 6-minute stimulating, the lung overfall of isolated bronchitis becomes stable.

In another experiment the test system is IL-2. The experiment in a line: IL-2 in blood serum and BALF of asthmatic guinea pig (ELISA). The experiment is classed as in vivo. The conditions noted are these: aminophylline group. The method, then:
(§2) 11) IL-2, IL-4 assaying box for ELISA: provided by Shenzhen Jing Mei Co., Ltd.
as §1
(In general: ELISA stands for enzyme-linked immunosorbent assay.)

Another experiment has as its system IL-4. The experiment can be described thus: IL-4 in blood serum and BALF of asthmatic guinea pig (ELISA). The experiment is classed as in vivo. As to conditions: aminophylline group. The method, then:
as §2, §1

Experiment [4] concerns model mouse with chronic bronchitis. The experiment in a line: Cough of chronic bronchitis (SO2 stimulation). The experiment is classed as in vivo. The conditions noted are these: Dextromethorphan 15 mg/kg (positive control, also dexamethason 1.2 mg/kg). The method, then:
Preparation of model mouse with chronic bronchitis: choose 90 white mice, 20-25 g each, male or female Divide the mice randomly into six groups. In normal control group, no S02 stimulation is given, mice are feeding normally. In other groups, the following SO2 stimulation is given: place a utensil with 0.5 g anhydrous sodium sulfite in an 8 L bell cover, and place mice of each group into the bell cover, and add 50% vitriol 5 ml into the utensil, and take out the mice after 2 minutes; Once every day, 21 days.
During the dosing, observe the whole condition of animals in each group, and give the above SO2 stimulation to them in one hour after the last dosing. Record the delitescence of cough of each animal, and record the times of cough of each animal in 3 minutes.

In experiment [5] the test system is model mouse with acute bronchitis. The experiment in a line: Cough of acute bronchitis (SO2 stimulation). The conditions noted are these: Dextromethorphan 15 mg/kg oral. The experiment is classed as in vivo. The method, then: Preparation of model mouse with acute bronchitis: choose white mice, 20-25 g each, male or female. Pre-select method: place a utensil with 0.5 g anhydrous sodium sulfite in an 1 L beaker, add 50% vitriol 5 ml into the utensil, and place mice of each group into the beaker after 15 seconds, and take out the mice after 30 seconds. The mouse which starts cough in 3 minutes is an eligible mouse. Record the delitescence of cough of each animal, and record the times of cough of each animal. […] During the dosing, observe the whole condition of animals in each group, and give the above SO2 stimulation to them for 30 seconds in one hour after the last dosing. Record the delitescence of cough of each mouse, and record the times of cough of each animal in 3 minutes.

Experiment [6] has as its system Staphyloccocus aureus Rosenbach. The experiment can be described thus: Treatment of infection by Staphyloccocus aureus Rosenbach in vivo. The source says: (§3) 2.10.1 select some bacterial related to acute pharyngitis, such as Staphyloccocus aureus Rosenbach, and α-hemolytic streptococcus, inject above bacterial into animals, such as mouse, by intraperitoneal dosing or subcutaneous injection, which will make certain animal death. Dosed before infecting the bacterial, and dosed after infecting the bacterial, the animals will be observed for eating, drinking, and movement.
(§4) Observe and record the eating, drinking, and movement in 4 days as the normal value. Besides of control group, animals in other groups are injected 0.5 ml Staphyloccocus aureus Rosenbach by intraperitoneal dosing or subcutaneous injection In the next day, animals are feed 5 days by gavage, twice every day. Observe the condition of eating, drinking, and movement, and mean growth rates, and then compare with control group.

The test system of experiment [7] is α-hemolytic streptococcus. The experiment can be described thus: Experimental treatment of infection by α-hemolytic streptococcus in vivo. The conditions noted are these: Ofloxacin 500 mg/kg.
Text: as §3, §4
The other methods are the same as the section 2.10.1.

The test system of experiment [8] is model rat with chronic bronchitis. The experiment can be described thus: Treatment of pneumonia, histology of trachea and pneumonic tissue. The experiment is classed as in vivo, SD rat. The conditions noted are these: positive group, dexamethason 1.2 mg/kg (FIG. 5), gavage 10 days.
Experimental: Preparation of model rat with chronic bronchitis: choose 60 SD rats, 250-300 g each, male or female. Divide the rats randomly into six groups, one is normal control group, the other five groups are model groups which are modeling according to section 2.4.
During the dosing, observe the whole condition of animals in each group, and carry out the following procedures in ten days after the last dosing: The rats are narcosis under intraperitoneal anesthesia by 0.4 ml/100 g 10% chloral hydrate, and put on the operating table, open the neck and chest, bring out the trachea and pneumonic tissue, and then observe the condition of the sample. The sample is fixed by 10% formalin solution, and embedded by paraffin, and cut into slices, and dyed by HE. The inflammatory pathological changes are observed by microscope, including the integrality of epidermis, thickness of glands, infiltration of inflammatory cells in tracheal mucous, follicular lymph, and thickness of tracheal wall.
Setting [9] is: Ofloxacin 500 mg/kg, gavage twice every day.

With `CC(=O)OCC[N+](C)(C)C.[Cl-]` [Ach, Acetylcholine chloride], in [1], the Ciliary movement entry was “+++”. The same molecule gave a Moving velocity in [1] (ink on trachea mucous) of 5.36 ± 0.64 second/2 mm.

For the molecule `Cn1c(=O)c2[nH]cnc2n(C)c1=O` [Aminophylline], the MS in experiment [2] (aminophylline positive control group) stood at 96.7 ± 9.6%. For the same molecule, the RVHI in [2] (aminophylline positive control group, gavage) amounted to 28.62 ± 8.81%. Further, the BALF in experiment [2] (cells in bronchoalveolar lavage fluid, aminophylline positive control group) is 364.8 ± 95.7 /mm^3. For the same molecule, in [2] (comparing with the model group, aminophylline group), the “pathological changes of emphysema” value was “non-obviously improvement”. Besides, the “lung overfall of isolated bronchitis in contractive state, After dosing” value in experiment [3] is on record as 17.13 ± 3.08. In addition, the “lung overfall of isolated bronchitis in contractive state, Before dosing” value in [3] (baseline before dosing) is on record as 9.45 ± 1.86. For the same molecule, the “lung overfall of isolated bronchitis in contractive state, After dosing” value in [3] (listed as aminophylline) was “increases obviously”. Moreover, in the experiment on IL-2, the “IL-2 in BALF” value is on record as 0.13 ± 0.08 b pg/ml and the IL-2 in serum was found to be 1.45 ± 0.86 b pg/ml. For the same molecule, in the experiment with IL-2 (summary of table 9), the “amount of IL-2 in blood serum and BALF” value is “decreases obviously”. In the experiment on IL-4, the “IL-4 in BALF” value came to 26.81 ± 7.76 b pg/ml and the IL-4 in serum is reported as 1.78 ± 1.56 b pg/ml. Further, in the experiment on IL-4 (summary of table 9), the “amount of IL-4 in blood serum and BALF” value was “decreases obviously”.

In the case of `COc1ccc2c(c1)[C@]13CCCC[C@@H]1[C@H](C2)N(C)CC3` [Dextromethorphan], the values for the Delitescence in [4] (delitescence of cough) and in experiment [5] (delitescence of cough) were 17.70 ± 4.521 and 30.40 ± 9.91, respectively. Besides, the “Times of Cough” value worked out at 77.60 ± 9.88 in experiment [4] (in 3 minutes) and 35.20 ± 5.65 in experiment [5] (in 3 minutes).

As for `CC1COc2c(N3CCN(C)CC3)c(F)cc3c(=O)c(C(=O)O)cn1c23` (centres unmarked) [Ofloxacin], in experiment [6] (setting [9]), the “After infection, dringking, Day 1” value came out at 2.7 mL; the “After infection, dringking, Day 2” value was determined as 3.2 mL; the “After infection, dringking, Day 3” value came out at 3.0 mL; the “After infection, dringking, Day 4” value was determined as 3.5 mL. In addition, in [6] (setting [9]), the “After infection, dringking, Day 5” value is 4.3 mL; the “After infection, eating, Day 1” value is given as 1.9 g; the “After infection, eating, Day 2” value is given as 2.5 g; the “After infection, eating, Day 3” value was 3.2 g. In addition, in [6] (setting [9]), the “After infection, eating, Day 4” value is on record as 3.6 g and the “After infection, eating, Day 5” value is on record as 3.9 g. In experiment [6] (of 15 animals, Ofloxacin group), the Survive is on record as 15. In experiment [7], the “After infection, dringking, Day 1” value turned out to be 2.3 mL; the “After infection, dringking, Day 2” value turned out to be 3.6 mL; the “After infection, dringking, Day 3” value worked out at 3.8 mL; the “After infection, dringking, Day 4” value turned out to be 3.8 mL. In addition, in [7], the “After infection, dringking, Day 5” value worked out at 4.2 mL; the “After infection, eating, Day 1” value is recorded as 2.1 g; the “After infection, eating, Day 2” value is on record as 2.3 g; the “After infection, eating, Day 3” value was found to be 2.9 g. Moreover, in experiment [7], the “After infection, eating, Day 4” value came out at 3.2 g and the “After infection, eating, Day 5” value was 4.5 g.

Consider `C[C@@H]1C[C@H]2[C@@H]3CCC4=CC(=O)C=C[C@]4(C)[C@@]3(F)[C@@H](O)C[C@]2(C)[C@@]1(O)C(=O)CO` [dexamethason], for which, in experiment [8], the “inflammatory pathological changes of trachea and pneumonic tissue (microscope)” value is reported as “obviously different from the model control group”.
